Experiments:
Assay in all cases: relative viability (nuclei count vs DMSO), 5 days (fraction); higher = more cells survive
LK-2 = tested on: LK-2
Summary of the method: (§1)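 Five library-drug doses in √10 steps were combined with a fixed anchor-drug dose, or a single drug was given alone, by pin tool to lung cancer cell lines in 1536-well plates the day after seeding. Nuclei were stained and counted after 5 days. Relative viability is the nuclei count in treated wells over that in vehicle wells, taken as the median of duplicate plates.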

NCI-H520 = tested on: NCI-H520
Summary of the method: as §1

NCI-H1355 = tested on: NCI-H1355
Summary of the method: as §1

LCLC-103H = tested on: LCLC-103H
Summary of the method: as §1

COR-L 105 = tested on: COR-L 105
Summary of the method: as §1

NCI-H1648 = tested on: NCI-H1648
Summary of the method: as §1

NCI-H522 = tested on: NCI-H522
Summary of the method: as §1

Question: How did the relative viability (LK-2; first compound 0.01 µM) turn out when `CCN(CC)CCCCNc1ncc2cc(-c3cc(OC)cc(OC)c3)c(NC(=O)NC(C)(C)C)nc2n1` + CC(=O)Nc1cccc(-n2c(=O)n(C3CC3)c(=O)c3c(Nc4ccc(I)cc4F)n(C)c(=O)c(C)c32)c1 [Trametinib] (partner 0.02 µM) was run?
Answer: 0.856

Question: And the relative viability (LK-2; first compound 0.03162 µM)?
Answer: 0.649

Question: And the relative viability (LK-2; first compound 0.1 µM)?
Answer: 0.756

Question: And the relative viability (LK-2; first compound 0.3162 µM)?
Answer: 0.597

Question: What about the relative viability (LK-2; first compound 1 µM) of the same compound?
Answer: 0.299

Question: What about the relative viability (NCI-H520; first compound 0.01 µM) of the same compound?
Answer: 0.684

Question: What about the relative viability (NCI-H520; first compound 0.03162 µM) of the same compound?
Answer: 0.538

Question: And the relative viability (NCI-H520; first compound 0.1 µM)?
Answer: 0.722

Question: What about the relative viability (NCI-H520; first compound 0.3162 µM) of the same compound?
Answer: 0.287

Question: And the relative viability (NCI-H520; first compound 1 µM)?
Answer: 0.216

Question: What about the relative viability (NCI-H1355; first compound 0.01 µM) of the same compound?
Answer: 0.462

Question: And the relative viability (NCI-H1355; first compound 0.03162 µM)?
Answer: 0.436

Question: And the relative viability (NCI-H1355; first compound 0.1 µM)?
Answer: 0.479

Question: And the relative viability (NCI-H1355; first compound 0.3162 µM)?
Answer: 0.502

Question: What about the relative viability (NCI-H1355; first compound 1 µM) of the same compound?
Answer: 0.382

Question: And the relative viability (LCLC-103H; first compound 0.01 µM)?
Answer: 0.691

Question: What about the relative viability (LCLC-103H; first compound 0.03162 µM) of the same compound?
Answer: 0.719

Question: What about the relative viability (LCLC-103H; first compound 0.1 µM) of the same compound?
Answer: 0.75

Question: And the relative viability (LCLC-103H; first compound 0.3162 µM)?
Answer: 0.68

Question: What about the relative viability (LCLC-103H; first compound 1 µM) of the same compound?
Answer: 0.579

Question: And the relative viability (COR-L 105; first compound 0.01 µM)?
Answer: 0.417

Question: What about the relative viability (COR-L 105; first compound 0.03162 µM) of the same compound?
Answer: 0.406

Question: What about the relative viability (COR-L 105; first compound 0.1 µM) of the same compound?
Answer: 0.483

Question: What about the relative viability (COR-L 105; first compound 0.3162 µM) of the same compound?
Answer: 0.45

Question: What about the relative viability (COR-L 105; first compound 1 µM) of the same compound?
Answer: 0.451

Question: And the relative viability (NCI-H1648; first compound 0.01 µM)?
Answer: 0.368

Question: And the relative viability (NCI-H1648; first compound 0.03162 µM)?
Answer: 0.49

Question: What about the relative viability (NCI-H1648; first compound 0.1 µM) of the same compound?
Answer: 0.396

Question: What about the relative viability (NCI-H1648; first compound 0.3162 µM) of the same compound?
Answer: 0.46

Question: What about the relative viability (NCI-H1648; first compound 1 µM) of the same compound?
Answer: 0.367

Question: And the relative viability (NCI-H522; first compound 0.01 µM)?
Answer: 0.799

Question: And the relative viability (NCI-H522; first compound 0.03162 µM)?
Answer: 0.772

Question: What about the relative viability (NCI-H522; first compound 0.1 µM) of the same compound?
Answer: 0.787

Question: What about the relative viability (NCI-H522; first compound 0.3162 µM) of the same compound?
Answer: 0.664

Question: And the relative viability (NCI-H522; first compound 1 µM)?
Answer: 0.883

Question: Which results are given for `O=c1cc(N2CCOCC2)oc2c(-c3cccc4c3sc3ccccc34)cccc12` + CC(=O)c1c(C)c2cnc(Nc3ccc(N4CCNCC4)cn3)nc2n(C2CCCC2)c1=O [Palbociclib] (partner 0.5 µM)?
Answer: relative viability (LK-2; first compound 0.01 µM): 0.83; relative viability (LK-2; first compound 0.03162 µM): 0.768; relative viability (LK-2; first compound 0.1 µM): 0.587; relative viability (LK-2; first compound 0.3162 µM): 0.638; relative viability (LK-2; first compound 1 µM): 0.77; relative viability (NCI-H520; first compound 0.01 µM): 0.238; relative viability (NCI-H520; first compound 0.03162 µM): 0.224; relative viability (NCI-H520; first compound 0.1 µM): 0.207; relative viability (NCI-H520; first compound 0.3162 µM): 0.235; relative viability (NCI-H520; first compound 1 µM): 0.202; relative viability (NCI-H1355; first compound 0.01 µM): 0.424; relative viability (NCI-H1355; first compound 0.03162 µM): 0.403; relative viability (NCI-H1355; first compound 0.1 µM): 0.412; relative viability (NCI-H1355; first compound 0.3162 µM): 0.39; relative viability (NCI-H1355; first compound 1 µM): 0.392; relative viability (LCLC-103H; first compound 0.01 µM): 0.446; relative viability (LCLC-103H; first compound 0.03162 µM): 0.439; relative viability (LCLC-103H; first compound 0.1 µM): 0.513; relative viability (LCLC-103H; first compound 0.3162 µM): 0.514; relative viability (LCLC-103H; first compound 1 µM): 0.43; relative viability (COR-L 105; first compound 0.01 µM): 0.41; relative viability (COR-L 105; first compound 0.03162 µM): 0.468; relative viability (COR-L 105; first compound 0.1 µM): 0.438; relative viability (COR-L 105; first compound 0.3162 µM): 0.409; relative viability (COR-L 105; first compound 1 µM): 0.386; relative viability (NCI-H1648; first compound 0.03162 µM): 0.261; relative viability (NCI-H1648; first compound 0.1 µM): 0.273; relative viability (NCI-H1648; first compound 0.3162 µM): 0.284; relative viability (NCI-H1648; first compound 1 µM): 0.292; relative viability (NCI-H522; first compound 0.01 µM): 0.887; relative viability (NCI-H522; first compound 0.03162 µM): 1.25; relative viability (NCI-H522; first compound 0.1 µM): 0.831; relative viability (NCI-H522; first compound 0.3162 µM): 0.948; relative viability (NCI-H522; first compound 1 µM): 0.977

Question: For `O=c1cc(-c2cccc3c2Sc2ccccc2S3)oc(N2CCOCC2)c1` + Nc1nc2[nH]cc(CCc3ccc(C(=O)N[C@@H](CCC(=O)O)C(=O)O)cc3)c2c(=O)[nH]1 [Pemetrexed] (partner 0.2 µM), which relative viability (LK-2; first compound 0.08 µM) is on record?
Answer: 0.312

Question: What about the relative viability (LK-2; first compound 0.253 µM) of the same compound?
Answer: 0.297

Question: What about the relative viability (LK-2; first compound 0.8 µM) of the same compound?
Answer: 0.224

Question: What about the relative viability (LK-2; first compound 2.53 µM) of the same compound?
Answer: 0.256

Question: And the relative viability (LK-2; first compound 8 µM)?
Answer: 0.284

Question: And the relative viability (NCI-H520; first compound 0.08 µM)?
Answer: 0.634

Question: What about the relative viability (NCI-H520; first compound 0.253 µM) of the same compound?
Answer: 0.835

Question: What about the relative viability (NCI-H520; first compound 0.8 µM) of the same compound?
Answer: 0.739

Question: What about the relative viability (NCI-H520; first compound 2.53 µM) of the same compound?
Answer: 0.717

Question: What about the relative viability (NCI-H520; first compound 8 µM) of the same compound?
Answer: 0.69

Question: And the relative viability (NCI-H1355; first compound 0.08 µM)?
Answer: 1.11

Question: And the relative viability (NCI-H1355; first compound 0.253 µM)?
Answer: 1.15

Question: What about the relative viability (NCI-H1355; first compound 0.8 µM) of the same compound?
Answer: 0.898

Question: What about the relative viability (NCI-H1355; first compound 2.53 µM) of the same compound?
Answer: 0.995

Question: And the relative viability (NCI-H1355; first compound 8 µM)?
Answer: 1.06

Question: And the relative viability (LCLC-103H; first compound 0.08 µM)?
Answer: 0.44

Question: And the relative viability (LCLC-103H; first compound 0.253 µM)?
Answer: 0.467

Question: And the relative viability (LCLC-103H; first compound 0.8 µM)?
Answer: 0.473

Question: What about the relative viability (LCLC-103H; first compound 2.53 µM) of the same compound?
Answer: 0.423

Question: And the relative viability (LCLC-103H; first compound 8 µM)?
Answer: 0.438

Question: And the relative viability (COR-L 105; first compound 0.08 µM)?
Answer: 1.08

Question: And the relative viability (COR-L 105; first compound 0.253 µM)?
Answer: 0.835

Question: What about the relative viability (COR-L 105; first compound 0.8 µM) of the same compound?
Answer: 1.1

Question: And the relative viability (COR-L 105; first compound 2.53 µM)?
Answer: 0.918

Question: And the relative viability (COR-L 105; first compound 8 µM)?
Answer: 1.14

Question: And the relative viability (NCI-H1648; first compound 0.253 µM)?
Answer: 0.701

Question: And the relative viability (NCI-H1648; first compound 0.8 µM)?
Answer: 0.624

Question: And the relative viability (NCI-H1648; first compound 8 µM)?
Answer: 0.749

Question: And the relative viability (NCI-H522; first compound 0.08 µM)?
Answer: 0.844

Question: And the relative viability (NCI-H522; first compound 0.253 µM)?
Answer: 1.13

Question: What about the relative viability (NCI-H522; first compound 0.8 µM) of the same compound?
Answer: 0.851

Question: What about the relative viability (NCI-H522; first compound 2.53 µM) of the same compound?
Answer: 1.03

Question: And the relative viability (NCI-H522; first compound 8 µM)?
Answer: 1.12

Source: the supplement of paper PMC10307832
